Test results from article PMC3848474, “Different effects of progesterone and estradiol on chimeric and wild type aldosterone synthase in vitro” (Reproductive Biology and Endocrinology : RB&E, 2013).
pIC50: −log10 of the molar value.

Target: T1, wild type aldosterone synthase (ASWT, CYP11B2) (Homo sapiens, UniProt P19099)
T1 construct: full ASWT cDNA
T1 sequence (P19099 25-503): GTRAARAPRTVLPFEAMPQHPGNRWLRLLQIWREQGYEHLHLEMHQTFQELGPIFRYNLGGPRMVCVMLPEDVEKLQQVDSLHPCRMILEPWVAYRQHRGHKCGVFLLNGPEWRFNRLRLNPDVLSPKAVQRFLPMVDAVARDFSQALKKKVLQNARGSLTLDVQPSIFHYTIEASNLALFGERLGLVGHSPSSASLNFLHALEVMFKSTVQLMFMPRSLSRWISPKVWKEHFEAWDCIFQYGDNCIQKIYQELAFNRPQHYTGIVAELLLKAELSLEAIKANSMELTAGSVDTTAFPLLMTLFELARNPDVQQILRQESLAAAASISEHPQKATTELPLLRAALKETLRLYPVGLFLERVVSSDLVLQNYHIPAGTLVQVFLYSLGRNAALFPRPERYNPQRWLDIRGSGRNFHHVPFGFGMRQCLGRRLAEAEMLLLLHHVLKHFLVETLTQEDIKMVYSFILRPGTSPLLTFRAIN
Assay: aldosterone production from DOC in CYP11B2-transfected HEK-293 cells, HPLC-MS/MS; Km/Vmax shift
Format: cell-based

CC(=O)[C@H]1CC[C@H]2[C@@H]3CCC4=CC(=O)CC[C@]4(C)[C@H]3CC[C@]12C [progesterone]
pIC50: 5.65
